# Data published in patent publication US8921376B2, “Pyrrolopyridines useful as inhibitors of protein kinase” (Vertex Pharmaceuticals Incorporated, priority 2005, dated 2014).
# Assays:
# Format in all cases: biochemical
# [1] = target: JAK2 (Homo sapiens, UniProt O60674); test: JAK2 inhibition assay (as Example 3 with JAK-2 enzyme)
# Experimental: (§1) Compounds were screened for their ability to inhibit JAK using the assay shown below. Reactions were carried out in a kinase buffer containing 100 mM HEPES (pH 7.4), 1 mM DTT, 10 mM MgCl2, 25 mM NaCl, and 0.01% BSA.
# (§2) Substrate concentrations in the assay were 5 μM ATP (200 μCi/μmole ATP) and 1 μM poly(Glu)4Tyr. Reactions were carried out at 25° C. and 1 nM JAK3.
# (§3) To each well of a 96 well polycarbonate plate was added 1.5 μl of a candidate JAK3 inhibitor along with 50/1 of kinase buffer containing 2 μM poly(Glu)4Tyr and 10 μM ATP. This was then mixed and 50 μl of kinase buffer containing 2 nM JAK3 enzyme was added to start the reaction. After 20 minutes at room temperature (25 C), the reaction was stopped with 50 μl of 20% trichloroacetic acid (TCA) that also contained 0.4 mM ATP. The entire contents of each well were then transferred to a 96 well glass fiber filter plate using a TomTek Cell Harvester. After washing, 60 μl of scintillation fluid was added and ^33P incorporation detected on a Perkin Elmer TopCount.
# The assays were as described above in Example 3 except that JAK-2 enzyme was used, the final poly(Glu)4Tyr concentration was 15 μM, and final ATP concentration was 12 μM.
# [2] = target: T1, JAK3 (Homo sapiens, UniProt P52333); test: JAK3 inhibition assay (33P incorporation into poly(Glu)4Tyr)
# T1 sequence (P52333 1-1124): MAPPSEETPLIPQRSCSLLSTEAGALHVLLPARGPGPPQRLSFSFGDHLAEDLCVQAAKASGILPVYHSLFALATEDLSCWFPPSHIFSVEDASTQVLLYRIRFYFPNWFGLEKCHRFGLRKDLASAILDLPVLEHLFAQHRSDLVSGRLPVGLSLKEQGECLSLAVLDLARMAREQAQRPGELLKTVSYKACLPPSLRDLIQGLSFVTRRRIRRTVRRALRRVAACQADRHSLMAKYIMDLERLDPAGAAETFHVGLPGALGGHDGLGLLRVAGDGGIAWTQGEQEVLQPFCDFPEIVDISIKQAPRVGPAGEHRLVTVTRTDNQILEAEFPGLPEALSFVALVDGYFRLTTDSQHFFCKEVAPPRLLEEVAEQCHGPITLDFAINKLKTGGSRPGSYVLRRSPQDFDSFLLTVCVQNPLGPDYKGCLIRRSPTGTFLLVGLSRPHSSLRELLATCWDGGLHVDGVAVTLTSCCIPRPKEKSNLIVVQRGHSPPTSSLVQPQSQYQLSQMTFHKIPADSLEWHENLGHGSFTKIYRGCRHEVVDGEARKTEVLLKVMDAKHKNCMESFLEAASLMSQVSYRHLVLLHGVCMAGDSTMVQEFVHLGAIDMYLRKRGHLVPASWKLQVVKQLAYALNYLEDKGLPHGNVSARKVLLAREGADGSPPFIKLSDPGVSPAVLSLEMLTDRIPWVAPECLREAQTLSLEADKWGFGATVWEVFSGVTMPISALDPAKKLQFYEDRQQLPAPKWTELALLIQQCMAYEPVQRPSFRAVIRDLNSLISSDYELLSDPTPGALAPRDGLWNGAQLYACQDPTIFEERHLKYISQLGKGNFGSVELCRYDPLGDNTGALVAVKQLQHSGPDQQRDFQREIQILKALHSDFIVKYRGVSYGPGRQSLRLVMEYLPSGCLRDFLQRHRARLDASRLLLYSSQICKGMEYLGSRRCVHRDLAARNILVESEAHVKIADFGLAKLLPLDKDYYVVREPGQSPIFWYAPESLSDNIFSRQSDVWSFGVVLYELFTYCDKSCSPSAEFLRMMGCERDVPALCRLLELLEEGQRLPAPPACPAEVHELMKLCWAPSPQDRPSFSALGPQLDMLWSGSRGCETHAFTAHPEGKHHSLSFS
# Experimental: as §1, §2, §3
# [3] = target: ROCK I (Homo sapiens, UniProt Q13464); test: ROCK-I inhibition assay (radioactive enzyme assay, MBP substrate)
# Experimental: Compounds were screened for their ability to inhibit ROCK using a standard radioactive enzyme assay. Assays were carried out in a solution containing 100 mM HEPES (pH 7.5), 10 mM MgCl2, 25 mM NaCl, 2 mM DTT, and 1.5% DMSO. Final substrate concentrations in the assay were 13 μM [γ-^33P] ATP (25 mCi ^33P ATP/mmol ATP, Perkin Elmer, Cambridge, Mass./Sigma Chemicals, St Louis, Mo.) and 27 μM Myelin Basic Protein (MBP). Final enzyme concentration in the assay was 5 nM ROCK. Assays were carried out at room temperature. 1.5 μl of DMSO stock containing serial dilutions of the compound of the present invention (concentrations ranging from 10 μM to 2.6 nM) was placed in a 96 well plate. 50 μl of Solution 1 (100 mM HEPES (pH 7.5), 10 mM MgCl2, […]) was added to the plate. The reaction was initiated by addition of 50 μl of Solution 2 (100 mM HEPES (pH 7.5), 10 mM MgCl2, 4 mM DTT, […] and 10 nM ROCK). After 2 hours the reaction was quenched with 50 μL of 30% trichloroacetic acid (TCA, Fisher) containing 9 mM ATP. Transfer of 140 μL of the quenched reaction to a glass fiber filter plate (Corning, Cat. No. 3511) was followed by washing 3 times with 5% TCA. 50 μl of Optima Gold scintillation fluid (Perkin Elmer) was added and the plates were counted on a Top Count (Perkin Elmer). After removing mean background values for all of the data points the data was fit using Prism software to obtain a Ki(app).
# [4] = Table 6, enzyme inhibition data (Ki)
# [5] = enzyme inhibition, Ki(app), Table 5
# JAK2, sequence (O60674 whole entry): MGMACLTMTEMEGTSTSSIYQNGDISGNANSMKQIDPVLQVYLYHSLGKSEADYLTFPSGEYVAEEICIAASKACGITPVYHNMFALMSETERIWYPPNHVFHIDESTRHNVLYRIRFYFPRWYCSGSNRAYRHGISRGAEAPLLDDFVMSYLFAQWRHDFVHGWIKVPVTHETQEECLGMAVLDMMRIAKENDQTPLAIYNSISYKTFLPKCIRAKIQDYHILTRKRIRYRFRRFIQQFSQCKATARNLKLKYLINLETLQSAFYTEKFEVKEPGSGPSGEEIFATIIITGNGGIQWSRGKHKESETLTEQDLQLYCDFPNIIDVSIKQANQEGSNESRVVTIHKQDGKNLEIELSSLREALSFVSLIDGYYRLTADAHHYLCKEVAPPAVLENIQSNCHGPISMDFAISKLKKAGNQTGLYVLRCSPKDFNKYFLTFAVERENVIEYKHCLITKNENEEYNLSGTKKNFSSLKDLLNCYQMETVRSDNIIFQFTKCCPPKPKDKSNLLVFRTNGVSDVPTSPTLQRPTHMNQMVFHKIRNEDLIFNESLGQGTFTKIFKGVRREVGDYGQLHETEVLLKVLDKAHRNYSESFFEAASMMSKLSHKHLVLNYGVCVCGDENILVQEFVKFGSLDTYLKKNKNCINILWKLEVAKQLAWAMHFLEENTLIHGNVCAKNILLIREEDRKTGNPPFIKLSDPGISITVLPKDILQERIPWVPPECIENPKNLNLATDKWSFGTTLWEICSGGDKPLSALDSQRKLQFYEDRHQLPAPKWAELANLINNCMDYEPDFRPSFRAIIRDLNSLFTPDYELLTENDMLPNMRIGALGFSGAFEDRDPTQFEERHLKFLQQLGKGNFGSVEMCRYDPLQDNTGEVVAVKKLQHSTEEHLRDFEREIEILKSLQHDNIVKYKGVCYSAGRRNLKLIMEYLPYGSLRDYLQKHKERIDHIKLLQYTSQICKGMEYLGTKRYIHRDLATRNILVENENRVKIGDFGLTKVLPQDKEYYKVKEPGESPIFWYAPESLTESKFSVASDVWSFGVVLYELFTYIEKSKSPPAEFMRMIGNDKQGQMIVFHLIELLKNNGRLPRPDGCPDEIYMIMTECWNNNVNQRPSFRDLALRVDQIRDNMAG
# ROCK I, sequence (Q13464 whole entry): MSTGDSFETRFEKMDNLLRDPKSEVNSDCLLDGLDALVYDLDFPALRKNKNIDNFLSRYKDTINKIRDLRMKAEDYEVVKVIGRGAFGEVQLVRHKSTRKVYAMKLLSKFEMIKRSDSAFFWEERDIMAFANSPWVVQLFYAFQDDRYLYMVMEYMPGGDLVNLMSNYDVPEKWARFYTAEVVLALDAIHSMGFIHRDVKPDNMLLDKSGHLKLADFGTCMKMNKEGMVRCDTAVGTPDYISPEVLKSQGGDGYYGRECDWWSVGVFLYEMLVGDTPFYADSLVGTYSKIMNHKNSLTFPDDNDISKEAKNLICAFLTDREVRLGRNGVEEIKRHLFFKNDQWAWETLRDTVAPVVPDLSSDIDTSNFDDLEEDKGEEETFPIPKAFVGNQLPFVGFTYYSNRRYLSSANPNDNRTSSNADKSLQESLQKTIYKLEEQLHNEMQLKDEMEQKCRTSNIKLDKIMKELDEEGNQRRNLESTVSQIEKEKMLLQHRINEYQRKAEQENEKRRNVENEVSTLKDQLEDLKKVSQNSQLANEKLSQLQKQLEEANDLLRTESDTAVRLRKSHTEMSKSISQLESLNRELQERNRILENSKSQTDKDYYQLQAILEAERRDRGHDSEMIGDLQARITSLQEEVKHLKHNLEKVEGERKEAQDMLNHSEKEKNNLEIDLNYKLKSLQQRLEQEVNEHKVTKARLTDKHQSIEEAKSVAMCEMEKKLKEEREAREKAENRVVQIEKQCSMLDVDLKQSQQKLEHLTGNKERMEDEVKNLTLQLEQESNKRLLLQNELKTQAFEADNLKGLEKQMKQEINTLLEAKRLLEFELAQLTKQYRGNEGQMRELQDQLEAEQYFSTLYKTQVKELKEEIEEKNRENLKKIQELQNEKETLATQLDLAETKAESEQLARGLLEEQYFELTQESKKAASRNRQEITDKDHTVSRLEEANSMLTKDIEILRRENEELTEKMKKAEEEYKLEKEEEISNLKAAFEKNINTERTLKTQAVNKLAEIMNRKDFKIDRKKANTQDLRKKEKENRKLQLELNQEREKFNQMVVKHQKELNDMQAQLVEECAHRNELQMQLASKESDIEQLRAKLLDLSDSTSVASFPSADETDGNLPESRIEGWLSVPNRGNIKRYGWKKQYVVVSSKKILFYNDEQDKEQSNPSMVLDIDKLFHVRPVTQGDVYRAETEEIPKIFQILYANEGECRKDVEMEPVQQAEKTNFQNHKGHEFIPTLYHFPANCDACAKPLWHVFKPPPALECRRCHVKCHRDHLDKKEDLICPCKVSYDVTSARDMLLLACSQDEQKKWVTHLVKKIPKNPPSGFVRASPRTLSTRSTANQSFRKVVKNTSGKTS
Compound,"Ki [1, 4] [nM]","Ki [2, 4] [nM]","Ki [3, 4] [nM]","Ki ([1]; enzyme inhibition, Table 5) [nM]","Ki ([2]; enzyme inhibition, Table 5) [nM]","Ki [3, 5] [nM]"
CCCN(CCC#N)C(=O)c1cc(-c2c(F)cnc3[nH]ccc23)c[nH]1 [compound 396],< 500,< 500,< 500,,,
OC1CCN(c2cccc(-c3ccnc4[nH]ccc34)n2)C1 (stereo not drawn) [compound 51],,,,500 to 5000,500 to 5000,500 to 5000
"c1cc(CN2CCCCC2)cc(-c2ccnc3[nH]ccc23)c1 [compound 87, 4-(3-Piperidin-1-ylmethyl-phenyl)-1H-pyrrolo[2,3-b]pyridine]",,,,500 to 5000,500 to 5000,500 to 5000
O=C(NC1CC1)c1cc(-c2c(Cl)cnc3[nH]ccc23)c[nH]1 [compound 281],< 500,< 500,500 to 5000,,,
O=C(CC1CCCC1)Nc1nc(-c2ccnc3[nH]ccc23)cs1 [compound 379],< 500,< 500,< 500,,,
C[C@@H](CO)NC(=O)c1ccc(-c2ccnc3[nH]ccc23)s1 [compound 15],,,,,< 500,< 500
N#CC1CCCN1C(=O)c1cc(-c2ccnc3[nH]ccc23)c[nH]1 (stereo not drawn) [compound 373],< 500,< 500,< 500,,,
O=S(=O)(C1CC1)N1CC[C@@H](Nc2c(Cl)cnc3[nH]ccc23)C1 [compound 183],< 500,< 500,> 4000,,,
CCNC(=O)c1ccccc1-c1ccnc2[nH]ccc12 [compound 257],> 5000,> 5000,> 4000,,,
CN(CCC#N)C(=O)c1ccc(-c2ccnc3[nH]ccc23)s1 [compound 322],< 500,< 500,< 500,,,
CC(C)(C)C(=O)Nc1ncccc1-c1ccnc2[nH]ccc12 [compound 194],> 5000,> 5000,> 4000,,,
CCCS(=O)(=O)N1CC[C@@H](Nc2c(Cl)cnc3[nH]ccc23)C1 [compound 180],< 500,< 500,> 4000,,,
N#Cc1ccc(Nc2c(Cl)cnc3[nH]ccc23)c(Cl)c1 [compound 163],< 500,< 500,> 4000,,,
CCN(Cc1ccccc1)C(=O)c1cc(-c2c(Cl)cnc3[nH]ccc23)c[nH]1 [compound 344],< 500,< 500,500 to 5000,,,
"C1=C(c2ccnc3[nH]ccc23)CCC1 [compound 27, 4-Cyclopentenyl-1H-pyrrolo[2,3b]pyridine]",,,,< 500,< 500,< 500
Clc1cnc2[nH]ccc2c1-c1cc2ccccc2o1 [compound 138],< 500,< 500,> 4000,,,
CCc1ccccc1-c1ccnc2[nH]ccc12 [compound 231],500 to 5000,500 to 5000,500 to 5000,,,
O=C(NCC1CCCO1)c1ccc(-c2ccnc3[nH]ccc23)s1 (stereo not drawn) [compound 6],,,,,< 500,< 500

Compound,"Ki [1, 4] [nM]","Ki [2, 4] [nM]","Ki [3, 4] [nM]","Ki ([1]; enzyme inhibition, Table 5) [nM]","Ki ([2]; enzyme inhibition, Table 5) [nM]","Ki [3, 5] [nM]"
CS(=O)(=O)Nc1cccc(CC(=O)Nc2cc(-c3ccnc4[nH]ccc34)cs2)c1 [compound 3],,,,,< 500,< 500
O=C(N[C@H](CO)c1cccc(Cl)c1)c1cc(-c2ccnc3[nH]ccc23)c[nH]1 [compound 2],,,,,500 to 5000,
COC[C@@H]1CCCN1C(=O)c1ccc(-c2ccnc3[nH]ccc23)s1 [compound 12],,,,,500 to 5000,500 to 5000
"c1cc(NC2CCCC2)nc(-c2ccnc3[nH]ccc23)c1 [compound 24, N-Cyclopentyl-6-(1H-pyrrolo[2,3-b]pyridin-4-yl)pyridin-2-amine]",,,,500 to 5000,500 to 5000,
CCC(CC)NC(=O)c1ccc(-c2ccnc3[nH]ccc23)s1 [compound 17],,,,,< 500,< 500
CCCNC(=O)c1ccc(-c2ccnc3[nH]ccc23)s1 [compound 7],,,,,< 500,< 500
"COc1ccc(-c2ccnc3[nH]ccc23)cc1OC [compound 1, 4-(3,4-dimethoxyphenyl)-1H-pyrrolo[2,3-b]pyridine]",,,,,500 to 5000,
O=C(c1ccc(-c2ccnc3[nH]ccc23)s1)N1CCC[C@@H]1CO [compound 11],,,,,< 500,< 500
O=C(c1ccc(-c2ccnc3[nH]ccc23)s1)N1CCNCC1 [compound 4],,,,,< 500,< 500
O=C(c1ccc(-c2ccnc3[nH]ccc23)s1)N1CCC[C@H]1CO [compound 10],,,,,< 500,< 500
COCCNC(=O)c1ccc(-c2ccnc3[nH]ccc23)s1 [compound 9],,,,,< 500,< 500
CCC(CO)NC(=O)c1ccc(-c2ccnc3[nH]ccc23)s1 (racemic) [compound 14],,,,,< 500,< 500
O=C(NCCO)c1ccc(-c2ccnc3[nH]ccc23)s1 [compound 8],,,,,< 500,< 500
CC(C)C(CO)NC(=O)c1ccc(-c2ccnc3[nH]ccc23)s1 (stereo not drawn) [compound 16],,,,,< 500,< 500
COC[C@H]1CCCN1C(=O)c1ccc(-c2ccnc3[nH]ccc23)s1 [compound 13],,,,,< 500,< 500
CC(=O)N(Cc1ccccc1)c1cc(-c2ccnc3[nH]ccc23)cs1 [compound 21],,,,,< 500,500 to 5000
COCC(=O)Nc1cc(-c2ccnc3[nH]ccc23)cs1 [compound 23],,,,,500 to 5000,< 500
